Measurements from ChEMBL document CHEMBL1130481, “Structure-activity relationships of carbocyclic influenza neuraminidase inhibitors” (Bioorg Med Chem Lett, 1997).
pIC50: −log10 of the molar value.

Tests used:
[1] = target: Neuraminidase (Influenza A virus (A/Puerto Rico/8/1934(H1N1)), UniProt P03468); test: Inhibition of neuraminidase of influenza A/PR/8/34(H1N1)
[2] = test system: unidentified influenza virus; test: Concentration required for 50% inhibition of influenza A/WS/33 by plaque reduction assay; assay type: functional, organism-based

Neuraminidase (Influenza A virus (A/Puerto Rico/8/1934(H1N1)), UniProt P03468), sequence (P03468 whole entry): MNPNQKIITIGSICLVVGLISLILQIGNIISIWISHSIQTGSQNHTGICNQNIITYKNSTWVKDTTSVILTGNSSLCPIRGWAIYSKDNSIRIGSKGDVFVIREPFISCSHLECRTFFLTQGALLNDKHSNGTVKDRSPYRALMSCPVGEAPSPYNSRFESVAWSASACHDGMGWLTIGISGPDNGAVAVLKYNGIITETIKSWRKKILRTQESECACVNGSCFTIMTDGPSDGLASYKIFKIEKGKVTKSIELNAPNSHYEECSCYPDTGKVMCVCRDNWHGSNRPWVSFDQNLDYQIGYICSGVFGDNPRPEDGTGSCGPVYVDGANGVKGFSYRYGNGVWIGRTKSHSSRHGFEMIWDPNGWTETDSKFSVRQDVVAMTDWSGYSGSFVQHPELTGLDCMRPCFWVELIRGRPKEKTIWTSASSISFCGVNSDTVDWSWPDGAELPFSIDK

**Q.** How did the pIC50 [1] turn out when `CC(=O)N[C@@H]1[C@@H](N)CC(C(=O)O)=C[C@H]1Oc1ccccc1` was run?
**A.** The pIC50 was 6.28.

**Q.** What does the source list for `CCCO[C@@H]1C=C(C(=O)O)C[C@H](N=C(N)NC)[C@H]1NC(C)=O`?
**A.** pIC50 [1]: 8.34; pIC50 [2]: 8.80

**Q.** How did the pIC50 [1] turn out when `CC(=O)N[C@@H]1[C@@H](N)CC(C(=O)O)=C[C@H]1OC1CCCCC1` was run?
**A.** The pIC50 was 7.22.

**Q.** How did the pIC50 [1] turn out when `CCCO[C@@H]1C=C(C(=O)O)C[C@H](N)[C@H]1NC(=O)C(F)(F)F` was run?
**A.** The pIC50 was 5.85.

**Q.** And the pIC50 [2]?
**A.** Its pIC50 is 4.66.

**Q.** `CCCO[C@@H]1C=C(C(=O)O)C[C@H](N)[C@H]1NS(C)(=O)=O` was tested. Which pIC50 [1] did it give?
**A.** Its pIC50 is 4.60.

**Q.** With `CC(=O)N[C@@H]1[C@@H](N)CC(C(=O)O)=C[C@H]1OCCC(F)(F)F` as the compound, how does the pIC50 [1] read?
**A.** Its pIC50 is 6.65.

**Q.** How did the pIC50 [1] turn out when `C=CCO[C@@H]1C=C(C(=O)O)C[C@H](N)[C@H]1NC(C)=O` was run?
**A.** The pIC50 was 5.66.

**Q.** How did the pIC50 [1] turn out when `CCCO[C@@H]1C=C(C(=O)O)C[C@H](NC=N)[C@H]1NC(C)=O` was run?
**A.** Its pIC50 is 6.85.

**Q.** `CCCO[C@@H]1C=C(C(=O)O)C[C@H](N)[C@H]1NC(=O)CC` was tested. Which pIC50 [1] did it give?
**A.** The pIC50 was 5.82.

**Q.** With `CC(=O)N[C@@H]1[C@@H](N)CC(C(=O)O)=C[C@H]1OC1CCCC1` as the compound, how does the pIC50 [1] read?
**A.** Its pIC50 is 7.66.

**Q.** What does the source list for `CCCO[C@@H]1C=C(C(=O)O)C[C@H](N)[C@H]1NC(C)=O`?
**A.** pIC50 [1]: 6.89; pIC50 [2]: 4.36

**Q.** With `COCO[C@@H]1C=C(C(=O)O)C[C@H](N)[C@H]1NC(C)=O` as the compound, how does the pIC50 [1] read?
**A.** Its pIC50 is 5.70.

**Q.** How did the pIC50 [1] turn out when `CCCO[C@@H]1C=C(C(=O)O)C[C@H](N=C(N)N)[C@H]1NC(C)=O` was run?
**A.** The pIC50 was 8.74.

**Q.** And the pIC50 [2]?
**A.** Its pIC50 is 7.36.
